Measured values reported in ChEMBL document CHEMBL3638533, “4-carboxybenzylamino derivatives as histone deacetylase inhibitors” (2015).
pIC50: −log10 of the molar value.

Target: Histone deacetylase 1 (Homo sapiens, UniProt Q13547)
Experiment: Flag Assay: Novel compounds were tested for their ability to inhibit histone deacetylase, subtype 1 (HDAC1) using an in vitro deacetylation assay. The enzyme source for this assay was an epitope-tagged human HDAC1 complex immuno-purified from stably expressing mammalian cells. The substrate consisted of a commercial product containing an acetylated lysine side chain (BIOMOL Research Laboratories, Inc., Plymouth Meeting, Pa.). Upon deacetylation of the substrate by incubation with the purified HDAC1 complex, a fluorophore is produced that is directly proportional to the level of deacetylation.

Sequence of Histone deacetylase 1 (Q13547 whole entry): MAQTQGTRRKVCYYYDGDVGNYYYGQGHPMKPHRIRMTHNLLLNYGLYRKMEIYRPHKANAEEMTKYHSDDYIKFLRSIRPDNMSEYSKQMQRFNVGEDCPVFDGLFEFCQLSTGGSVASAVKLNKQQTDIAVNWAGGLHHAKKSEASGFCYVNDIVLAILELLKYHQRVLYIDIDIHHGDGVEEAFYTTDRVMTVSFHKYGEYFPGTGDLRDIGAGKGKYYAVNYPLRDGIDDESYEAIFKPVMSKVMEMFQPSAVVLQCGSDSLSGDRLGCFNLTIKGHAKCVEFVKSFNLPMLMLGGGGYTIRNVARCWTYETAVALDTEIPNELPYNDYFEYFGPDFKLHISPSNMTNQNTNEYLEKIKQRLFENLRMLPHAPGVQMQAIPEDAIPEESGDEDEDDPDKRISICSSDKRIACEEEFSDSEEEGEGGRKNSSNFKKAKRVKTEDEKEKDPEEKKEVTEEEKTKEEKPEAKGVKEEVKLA

O=C(Nc1cc(-c2ccccc2)ccc1O)c1ccc(CNCCc2c[nH]cn2)cc1
pIC50: 5.60
